Measurements as given in patent US11160798B2, “Neuroprotective CB2 receptor agonists” (THE CLEVELAND CLINIC FOUNDATION, priority 2012, dated 2021).

Assays:
Assay type in all cases: in vivo, rat
[1] = tested on: IL-1β; assay: IL-1β protein expression in hippocampal CA1 area (immunoblotting); conditions: Aβ1-40-injected rats, 15 mg/kg i.p. daily for 14 days
Description: (§1) Animals were divided into several groups (40-50 rats per group). The Aβ1-40 group received bilateral intracerebral microinjection of Aβ1-40 fibrils once and saline intraperitoneally (i.p.) daily for 14 days. The Aβ1-40+MDA7 group received bilateral intracerebral microinjection of Aβ1-40 fibrils once and 15 mg/kg MDA7 i.p. daily for 14 days. Other cohorts received smaller doses of MDA7 (5 mg/kg or 1.5 mg/kg) i.p. daily for 14 days to determine the dose-response characteristics for MDA7. In other groups, AM630 (a CB2 antagonist) 5 mg/kg i.p. was administered daily for 14 days either alone (Aβ1-40+AM630 group) or 15 min prior to MDA7 (15 mg/kg i.p.) administration (Aβ1-40+MDA7+AM630 group) to rats injected with β1-40 fibrils. […]
Protein extraction and immunoblotting. […] Protein concentrations were determined by using the Bio-Rad (Hercules, Calif.) protein assay kit.
The samples were treated with SDS sample buffer at 95° C. for 5 min, loaded on a 7.5% SDS-polyacrylamide, gel, and blotted to a nitrocellulose membrane. […] The immunoreactivity was detected using enhanced chemiluminescence (ECL Advance Kit; Amersham Biosciences). The intensity of the bands was captured digitally and analyzed quantitatively with ImageJ software. […]

[2] = tested on: CA1 neurons; assay: Long-term potentiation (LTP) in hippocampal CA1 slices; conditions: for average LTP: Aβ+MDA7 group (15 mg/kg i.p. 14 days), n=9
Description: Animals were divided into several groups ([…]). The Aβ1-40 group received bilateral intracerebral microinjection of Aβ1-40 fibrils once and saline intraperitoneally (i.p.) daily for 14 days. The Aβ1-40+MDA7 group received bilateral intracerebral microinjection of Aβ1-40 fibrils once and 15 mg/kg MDA7 i.p. daily for 14 days. Other cohorts received smaller doses of MDA7 (5 mg/kg or 1.5 mg/kg) i.p. daily for 14 days to determine the dose-response characteristics for MDA7. In other groups, AM630 (a CB2 antagonist) 5 mg/kg i.p. was administered daily for 14 days either alone (Aβ1-40+AM630 group) or 15 min prior to MDA7 (15 mg/kg i.p.) administration (Aβ1-40+MDA7+AM630 group) to rats injected with β1-40 fibrils. MDA7 group and control group received bilateral intracerebral microinjection of artificial cerebrospinal fluid (130 mM NaCl, 2.6 mM KCl. 4.3 mM MgCl2 and 1.8 mM CaCl2) once and 15 mg/kg MDA7 or saline i.p. daily for 14 days, respectively. Intraperitoneal administration of AM630, MDA7 or saline started on the same day after intracerebral microinjection of Aβ1-40. All drugs were prepared coded. Decoding was performed at the end of all experiments.
Hippocampal slice preparation. Brain slices containing hippocampus were prepared. Brain slices used for electrophysiological recording were obtained from all rats (n=10-12 rats per group) that had been subjected to the Morris water maze test. All rats were anesthetized with pentobarbital and then euthanized by decapitation. […]
(§2) Whole-cell patch clamp recordings in hippocampal slices. […] The series resistance was optimally compensated by ≥70% and constantly monitored throughout the experiments. […] Excitatory postsynaptic currents (EPSCs) were recorded in the CA1 area in the presence of GABAA antagonist bicuculline (30 μM). The evoked EPSCs were filtered at 2 kHz, digitized at 10 kHz, and acquired and analyzed using Axograph X software. The amplitude of EPSCs was monitored for a baseline period of at least 15 min. […]

[3] = tested on: CA1 neurons; assay: Evoked EPSCs (basal glutamatergic strength) in hippocampal CA1 slices, whole-cell patch clamp
Description: as §1, §2

## CC1(Cc2ccccc2)COc2cc(C(=O)N3CCCCC3)ccc21 (stereo not drawn) [MDA7, 3-benzyl-3-methyl-2,3-dihydrobenzofuran-6-carboxylic acid-piperidine amide]
[1]
  IL-1β protein expression (immunoblot): significantly attenuated
[2]; 30 min after induction
  average LTP: 214.5±23.6%
[2]; 60 min after induction
  average LTP: 195.7±21.8%
[2]; hippocampal slices of control rats (no Aβ1-40)
  induction of LTP, treatment alone: failed to significantly affect
[3]; Aβ1-40-injected rats, 15 mg/kg i.p. for 14 days, all three stimulus intensities
  amplitude of evoked EPSCs in CA1 neurons: restored
[3]; MDA7 group (no Aβ1-40) vs control group
  basal glutamatergic strength, treatment alone: not different
